The NIST ThermoML archive (doi:10.1021/je300941v)
± gives the expanded uncertainty stated by the source.

Experiment: xn = mol fraction of the nth substance listed
Conditions: 101 kPa, Liquid, Vibrating tube method

CCCC[N+]1(C)CCCC1.O=S(=O)([N-]S(=O)(=O)C(F)(F)F)C(F)(F)F + CNC=O
mass density [kg/m3]
Conditions	293.15 K	298.15 K	303.15 K	308.15 K	313.15 K	318.15 K	323.15 K
x1 = 0.0246	1055.01 ± 0.28	1050.43 ± 0.28	1045.86 ± 0.28	1041.32 ± 0.27	1036.71 ± 0.27	1032 ± 0.27	1027.24 ± 0.26
x1 = 0.0444	1087.36 ± 0.31	1082.72 ± 0.3	1078.08 ± 0.3	1073.48 ± 0.3	1068.79 ± 0.29	1064.04 ± 0.29	1059.25 ± 0.3
x1 = 0.0743	1124.18 ± 0.34	1119.6 ± 0.33	1114.93 ± 0.33	1110.11 ± 0.33	1105.37 ± 0.32	1100.74 ± 0.32	1095.89 ± 0.33
x1 = 0.1571	1192.03 ± 0.4	1187.22 ± 0.4	1182.56 ± 0.4	1177.83 ± 0.39	1173.12 ± 0.39	1168.24 ± 0.39	1163.34 ± 0.39
x1 = 0.2195	1227.49 ± 0.43	1222.75 ± 0.43	1218 ± 0.43	1213.28 ± 0.42	1208.51 ± 0.42	1203.7 ± 0.42	1198.78 ± 0.41
x1 = 0.2768	1253.4 ± 0.45	1248.66 ± 0.45	1243.85 ± 0.45	1239.09 ± 0.44	1234.35 ± 0.44	1229.57 ± 0.44	1224.76 ± 0.43
x1 = 0.3721	1288.07 ± 0.49	1283.27 ± 0.48	1278.56 ± 0.48	1273.79 ± 0.48	1269.04 ± 0.47	1264.27 ± 0.47	1259.52 ± 0.47
x1 = 0.4755	1318.98 ± 0.51	1314.25 ± 0.51	1309.5 ± 0.51	1304.78 ± 0.5	1300.03 ± 0.5	1295.32 ± 0.5	1290.63 ± 0.49
x1 = 0.588	1344.35 ± 0.53	1339.65 ± 0.53	1334.96 ± 0.52	1330.34 ± 0.52	1325.69 ± 0.52	1320.95 ± 0.51	1316.2 ± 0.51
x1 = 0.631	1352.66 ± 0.54	1347.99 ± 0.53	1343.33 ± 0.53	1338.74 ± 0.52	1334.09 ± 0.52	1329.42 ± 0.52	1324.65 ± 0.51
x1 = 0.7045	1364.77 ± 0.54	1360 ± 0.54	1355.4 ± 0.54	1350.82 ± 0.53	1346.19 ± 0.53	1341.54 ± 0.52	1336.77 ± 0.52
x1 = 0.7807	1375.58 ± 0.55	1370.92 ± 0.55	1366.37 ± 0.55	1361.76 ± 0.54	1357.23 ± 0.54	1352.53 ± 0.53	1347.89 ± 0.53
x1 = 0.9067	1390.15 ± 0.57	1385.5 ± 0.56	1380.94 ± 0.56	1376.4 ± 0.55	1371.81 ± 0.55	1367.24 ± 0.55	1362.53 ± 0.54
